This note sets out measurements from patent US10780090B2, “Heteroaryl compounds useful as inhibitors of SUMO activating enzyme” (Millennium Pharmaceuticals, Inc., priority 2014, dated 2020).

This assay concerns the target recombinant human SAE enzyme (Homo sapiens (Human), UniProt Q9UBT2). As to the kind of experiment: SAE HTRF enzyme assay. It counts as biochemical. Summed up:
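HTRF read-out using Eu-cryptate anti-Flag and allophycocyanin anti-GST antibodies, added with EDTA stop buffer and read after 2 h at 24 °C. The preceding reaction ran 105 min at 24 °C: 0.11 nM recombinant SAE, 0.5 μM ATP, Sumo-Flag, Ubc9-GST, pH 7.5. Values given as single-concentration inhibition or IC50.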

The mark [1] stands for this setting: SAE inhibition at compound concentration 0.111 μM.
[2] abbreviates: SAE inhibition, class symbols, legend in nM.

Sequence of recombinant human SAE enzyme (Q9UBT2 whole entry): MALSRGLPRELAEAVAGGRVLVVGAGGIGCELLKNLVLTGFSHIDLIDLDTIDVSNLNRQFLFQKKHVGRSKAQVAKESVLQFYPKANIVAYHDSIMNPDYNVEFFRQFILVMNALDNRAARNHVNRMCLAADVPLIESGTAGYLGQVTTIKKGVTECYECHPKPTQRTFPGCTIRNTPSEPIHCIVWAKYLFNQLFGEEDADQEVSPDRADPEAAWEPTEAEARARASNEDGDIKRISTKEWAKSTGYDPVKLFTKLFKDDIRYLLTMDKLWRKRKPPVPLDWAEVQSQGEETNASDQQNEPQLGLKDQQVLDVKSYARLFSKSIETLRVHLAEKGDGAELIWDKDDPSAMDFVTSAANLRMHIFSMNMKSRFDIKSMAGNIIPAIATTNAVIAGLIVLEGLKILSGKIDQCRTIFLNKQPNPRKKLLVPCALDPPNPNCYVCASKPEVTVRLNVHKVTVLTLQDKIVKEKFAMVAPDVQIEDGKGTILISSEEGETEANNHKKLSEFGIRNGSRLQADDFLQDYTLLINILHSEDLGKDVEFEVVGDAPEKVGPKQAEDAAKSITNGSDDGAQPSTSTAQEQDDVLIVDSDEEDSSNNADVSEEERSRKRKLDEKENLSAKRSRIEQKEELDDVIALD
Sequence of recombinant human SAE enzyme (Q9UBE0 whole entry partner): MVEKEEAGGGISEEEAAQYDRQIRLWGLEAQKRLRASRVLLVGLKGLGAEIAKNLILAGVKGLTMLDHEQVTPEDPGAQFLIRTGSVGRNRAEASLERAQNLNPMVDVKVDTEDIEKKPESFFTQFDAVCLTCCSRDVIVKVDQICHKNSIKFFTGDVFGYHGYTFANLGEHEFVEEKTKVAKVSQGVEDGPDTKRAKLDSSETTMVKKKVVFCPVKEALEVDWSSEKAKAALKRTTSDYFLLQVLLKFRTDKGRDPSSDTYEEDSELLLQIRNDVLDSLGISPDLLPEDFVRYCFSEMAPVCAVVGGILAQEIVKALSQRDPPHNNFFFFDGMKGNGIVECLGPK

In the case of `Cc1sc(C(=O)c2cncnc2N[C@@H]2C[C@H](COS(N)(=O)=O)[C@@H](O)[C@@H]2F)cc1[C@H]1OCCc2ccc(Cl)cc21` (mixture of isomers) [I-264, [(1R,2R,3R,4R)-4-{[5-({4-[(1S)-7-chloro-3,4-dihydro-1H-isochromen-1-yl]-5-methyl-2-thienyl}carbonyl)pyrimidin-4-yl]amino}-3-fluoro-2-hydroxycyclopentyl]methyl sulfamate and [(1R,2R,3R,4R)-4-{[5-({4-[(1R)-7-chloro-3,4-dihydro-1H-isochromen-1-yl]-5-methyl-2-thienyl}carbonyl)pyrimidin-4-yl]amino}-3-fluoro-2-hydroxycyclopentyl]methyl sulfamate], the “Percent Inhibition” value (Concentration 0.111 μM) is reported as 100. The IC50 (class symbols A/B/C) is less than 10 nM.

For `CN1Cc2ccc(Cl)cc2[C@@H]1c1csc(C(=O)c2cncnc2N[C@@H]2C[C@H](COS(N)(=O)=O)[C@@H](O)C2)c1` (mixture of isomers) [I-265, [(1R,2S,4R)-4-{[5-({4-[(1R)-6-chloro-2-methyl-2,3-dihydro-1H-isoindol-1-yl]-2-thienyl}carbonyl)pyrimidin-4-yl]amino}-2-hydroxycyclopentyl]methyl sulfamate and [(1R,2S,4R)-4-{[5-({4-[(1S)-6-chloro-2-methyl-2,3-dihydro-1H-isoindol-1-yl]-2-thienyl}carbonyl)pyrimidin-4-yl]amino}-2-hydroxycyclopentyl]methyl sulfamate], for the setting “Concentration 0.111 μM”, the “Percent Inhibition” value stood at 97. In addition, under “class symbols A/B/C”, the IC50 is less than 10 nM.

`NS(=O)(=O)OC[C@H]1C[C@@H](Nc2ncncc2C(=O)c2cc([C@@H]3OCCc4ccc(Br)cc43)cs2)C[C@@H]1O.NS(=O)(=O)OC[C@H]1C[C@@H](Nc2ncncc2C(=O)c2cc([C@H]3OCCc4ccc(Br)cc43)cs2)C[C@@H]1O` (mixture of isomers) [I-268, [(1R,2S,4R)-4-{[5-({4-[(1R)-7-bromo-3,4-dihydro-1H-isochromen-1-yl]-2-thienyl}carbonyl)pyrimidin-4-yl]amino}-2-hydroxycyclopentyl]methyl sulfamate and [(1R,2S,4R)-4-{[5-({4-[(1S)-7-bromo-3,4-dihydro-1H-isochromen-1-yl]-2-thienyl}carbonyl)pyrimidin-4-yl]amino}-2-hydroxycyclopentyl]methyl sulfamate]: the “Percent Inhibition” value (Concentration 0.111 μM) amounted to 100. For the same molecule, the IC50 (class symbols A/B/C) is less than 10 nM.

On to `Cc1sc(C(=O)c2cncnc2N[C@@H]2C[C@H](COS(N)(=O)=O)[C@@H](O)C2)cc1[C@@H]1OCCc2ccsc21` (mixture of isomers) [I-269, [(1R,2S,4R)-4-{[5-({4-[(7S)-4,7-dihydro-5H-thieno[2,3-c]pyran-7-yl]-5-methyl-2-thienyl}carbonyl)pyrimidin-4-yl]amino}-2-hydroxycyclopentyl]methyl sulfamate and [(1R,2S,4R)-4-{[5-({4-[(7R)-4,7-dihydro-5H-thieno[2,3-c]pyran-7-yl]-5-methyl-2-thienyl}carbonyl)pyrimidin-4-yl]amino}-2-hydroxycyclopentyl]methyl sulfamate], for which, where the note is “Concentration 0.111 μM”, the “Percent Inhibition” value is on record as 99. Besides, for the setting “class symbols A/B/C”, the IC50 is less than 10 nM.

As for `Cc1oc(C(=O)c2cncnc2N[C@@H]2C[C@H](COS(N)(=O)=O)[C@@H](O)C2)cc1[C@@H]1OCCc2ccc(Cl)cc21` (mixture of isomers) [I-270, {(1R,2S,4R)-4-[(5-{4-[(1R)-7-chloro-3,4-dihydro-1H-isochromen-1-yl]-5-methyl-2-furoyl}pyrimidin-4-yl)amino]-2-hydroxycyclopentyl}methyl sulfamate and {(1R,2S,4R)-4-[(5-{4-[(1S)-7-chloro-3,4-dihydro-1H-isochromen-1-yl]-5-methyl-2-furoyl}pyrimidin-4-yl)amino]-2-hydroxycyclopentyl}methyl sulfamate], where the note is “Concentration 0.111 μM”, the “Percent Inhibition” value was 99. In addition, the IC50 (class symbols A/B/C) is less than 10 nM.

Turning to `NS(=O)(=O)OC[C@H]1C[C@@H](Nc2ncncc2C(=O)c2cc([C@@H]3NCCc4ccc(Cl)cc43)cs2)C[C@@H]1O` (mixture of isomers) [I-274, [(1R,2S,4R)-4-{[5-({4-[(1R)-7-chloro-1,2,3,4-tetrahydroisoquinolin-1-yl]-2-thienyl}carbonyl)pyrimidin-4-yl]amino}-2-hydroxycyclopentyl]methyl sulfamate and [(1R,2S,4R)-4-{[5-({4-[(1S)-7-chloro-1,2,3,4-tetrahydroisoquinolin-1-yl]-2-thienyl}carbonyl)pyrimidin-4-yl]amino}-2-hydroxycyclopentyl]methyl sulfamate], the “Percent Inhibition” value (Concentration 0.111 μM) is 100. The IC50 (class symbols A/B/C) is less than 10 nM.

`Cc1sc(C(=O)c2cncnc2N[C@@H]2C[C@H](COS(N)(=O)=O)[C@@H](O)C2)cc1[C@@H]1OCCc2sccc21` (mixture of isomers) [I-275, [(1R,2S,4R)-4-{[5-({4-[(4S)-6,7-dihydro-4H-thieno[3,2-c]pyran-4-yl]-5-methyl-2-thienyl}carbonyl)pyrimidin-4-yl]amino}-2-hydroxycyclopentyl]methyl sulfamate and [(1R,2S,4R)-4-{[5-({4-[(4R)-6,7-dihydro-4H-thieno[3,2-c]pyran-4-yl]-5-methyl-2-thienyl}carbonyl)pyrimidin-4-yl]amino}-2-hydroxycyclopentyl]methyl sulfamate]: the “Percent Inhibition” value (Concentration 0.111 μM) turned out to be 97. Besides, the IC50 (class symbols A/B/C) was less than 10 nM.

Take `NS(=O)(=O)OCC1CC(Nc2ncncc2C(=O)c2cc(C3OCCc4ccc(Cl)nc43)c(Cl)s2)CC1O` (mixture of isomers) [I-276, [(1R,2S,4R)-4-{[5-({5-chloro-4-[(8S)-2-chloro-5,8-dihydro-6H-pyrano[3,4-b]pyridin-8-yl]-2-thienyl}carbonyl)pyrimidin-4-yl]amino}-2-hydroxycyclopentyl]methyl sulfamate and [(1R,2S,4R)-4-{[5-({5-chloro-4-[(8R)-2-chloro-5,8-dihydro-6H-pyrano[3,4-b]pyridin-8-yl]-2-thienyl}carbonyl)pyrimidin-4-yl]amino}-2-hydroxycyclopentyl]methyl sulfamate]: under “Concentration 0.111 μM”, the “Percent Inhibition” value was found to be 98. For the same molecule, the IC50 (class symbols A/B/C) was less than 10 nM.

Consider `Cc1sc(C(=O)c2cncnc2N[C@@H]2C[C@H](COS(N)(=O)=O)[C@@H](O)C2)cc1[C@@H]1OCCc2ccc(C3CC3)cc21` (mixture of isomers) [I-277, [(1R,2S,4R)-4-{[5-({4-[(1R)-7-cyclopropyl-3,4-dihydro-1H-isochromen-1-yl]-5-methyl-2-thienyl}carbonyl)pyrimidin-4-yl]amino}-2-hydroxycyclopentyl]methyl sulfamate and [(1R,2S,4R)-4-{[5-({4-[(1S)-7-cyclopropyl-3,4-dihydro-1H-isochromen-1-yl]-5-methyl-2-thienyl}carbonyl)pyrimidin-4-yl]amino}-2-hydroxycyclopentyl]methyl sulfamate], for which, for the setting “Concentration 0.111 μM”, the “Percent Inhibition” value is listed as 99. Besides, for the setting “class symbols A/B/C”, the IC50 is less than 10 nM.

Take `NS(=O)(=O)OC[C@H]1C[C@@H](Nc2ncncc2C(=O)c2cc([C@@H]3SCCc4ccc(Cl)cc43)cs2)[C@H](O)[C@@H]1O` (mixture of isomers) [I-278, [(1R,2R,3S,4R)-4-{[5-({4-[(1R)-7-chloro-3,4-dihydro-1H-isothiochromen-1-yl]-2-thienyl}carbonyl)pyrimidin-4-yl]amino}-2,3-dihydroxycyclopentyl]methyl sulfamate and [(1R,2R,3S,4R)-4-{[5-({4-[(1S)-7-chloro-3,4-dihydro-1H-isothiochromen-1-yl]-2-thienyl}carbonyl)pyrimidin-4-yl]amino}-2,3-dihydroxycyclopentyl]methyl sulfamate]: where the note is “Concentration 0.111 μM”, the “Percent Inhibition” value is 98. Also, the IC50 (class symbols A/B/C) is less than 10 nM.

`Cc1sc(C(=O)c2cncnc2N[C@@H]2C[C@H](COS(N)(=O)=O)[C@@H](O)C2)cc1[C@H]1OCOc2ccccc21` (mixture of isomers) [I-280, [(1R,2S,4R)-4-{[5-({4-[(4R)-4H-1,3-benzodioxin-4-yl]-5-methyl-2-thienyl}carbonyl)pyrimidin-4-yl]amino}-2-hydroxycyclopentyl]methyl sulfamate and [(1R,2S,4R)-4-{[5-({4-[(4S)-4H-1,3-benzodioxin-4-yl]-5-methyl-2-thienyl}carbonyl)pyrimidin-4-yl]amino}-2-hydroxycyclopentyl]methyl sulfamate]: the “Percent Inhibition” value under setting [1] came out at 98%. Also, the IC50 under setting [2] was less than 10 nM.

As for `NS(=O)(=O)OC[C@H]1C[C@@H](Nc2ncncc2C(=O)c2cc([C@H]3OCC4(CC4)c4ccccc43)cs2)C[C@@H]1O` (mixture of isomers) [I-281, [(1R,2S,4R)-2-hydroxy-4-{[5-({4-[(1′R)-1′H-spiro[cyclopropane-1,4′-isochromen]-1′-yl]-2-thienyl}carbonyl)pyrimidin-4-yl]amino}cyclopentyl]methyl sulfamate and [(1R,2S,4R)-2-hydroxy-4-{[5-({4-[(1′S)-1′H-spiro[cyclopropane-1,4′-isochromen]-1′-yl]-2-thienyl}carbonyl)pyrimidin-4-yl]amino}cyclopentyl]methyl sulfamate], the “Percent Inhibition” value under setting [1] is 98%. Further, the IC50 under setting [2] was less than 10 nM.

For the molecule `NS(=O)(=O)OCC1CC(Nc2ncncc2C(=O)c2cc(C3OCCc4ccc(Cl)cc43)c(Cl)s2)CC1O` (mixture of isomers) [I-282, [(1R,2S,4R)-4-{[5-({5-chloro-4-[(1R)-7-chloro-3,4-dihydro-1H-isochromen-1-yl]-2-thienyl}carbonyl)pyrimidin-4-yl]amino}-2-hydroxycyclopentyl]methyl sulfamate and [(1R,2S,4R)-4-{[5-({5-chloro-4-[(1S)-7-chloro-3,4-dihydro-1H-isochromen-1-yl]-2-thienyl}carbonyl)pyrimidin-4-yl]amino}-2-hydroxycyclopentyl]methyl sulfamate], under setting [1], the “Percent Inhibition” value was determined as 100%. Further, under setting [2], the IC50 is less than 10 nM.

Usually IC50 stands for the point on the concentration scale where inhibition reaches its midpoint.
